The values below are quoted from earlier work in patent US20190048020A1, “DEUTERIUM-MODIFIED CFTR MODULATORS” (VERTEX PHARMACEUTICALS (EUROPE) LIMITED, priority 2016, published 2019).

The target of this data set is T1, CFTR G5551D mutation (Homo sapiens, UniProt P13569, G551D).
T1 construct: phase II study in patients with the CFTR G5551D mutation; host or cells: patients (in vivo, sweat chloride read-out)
The note with it: phase II study, patients with the CFTR G5551D mutation.

T1 sequence (P13569 whole entry G551D): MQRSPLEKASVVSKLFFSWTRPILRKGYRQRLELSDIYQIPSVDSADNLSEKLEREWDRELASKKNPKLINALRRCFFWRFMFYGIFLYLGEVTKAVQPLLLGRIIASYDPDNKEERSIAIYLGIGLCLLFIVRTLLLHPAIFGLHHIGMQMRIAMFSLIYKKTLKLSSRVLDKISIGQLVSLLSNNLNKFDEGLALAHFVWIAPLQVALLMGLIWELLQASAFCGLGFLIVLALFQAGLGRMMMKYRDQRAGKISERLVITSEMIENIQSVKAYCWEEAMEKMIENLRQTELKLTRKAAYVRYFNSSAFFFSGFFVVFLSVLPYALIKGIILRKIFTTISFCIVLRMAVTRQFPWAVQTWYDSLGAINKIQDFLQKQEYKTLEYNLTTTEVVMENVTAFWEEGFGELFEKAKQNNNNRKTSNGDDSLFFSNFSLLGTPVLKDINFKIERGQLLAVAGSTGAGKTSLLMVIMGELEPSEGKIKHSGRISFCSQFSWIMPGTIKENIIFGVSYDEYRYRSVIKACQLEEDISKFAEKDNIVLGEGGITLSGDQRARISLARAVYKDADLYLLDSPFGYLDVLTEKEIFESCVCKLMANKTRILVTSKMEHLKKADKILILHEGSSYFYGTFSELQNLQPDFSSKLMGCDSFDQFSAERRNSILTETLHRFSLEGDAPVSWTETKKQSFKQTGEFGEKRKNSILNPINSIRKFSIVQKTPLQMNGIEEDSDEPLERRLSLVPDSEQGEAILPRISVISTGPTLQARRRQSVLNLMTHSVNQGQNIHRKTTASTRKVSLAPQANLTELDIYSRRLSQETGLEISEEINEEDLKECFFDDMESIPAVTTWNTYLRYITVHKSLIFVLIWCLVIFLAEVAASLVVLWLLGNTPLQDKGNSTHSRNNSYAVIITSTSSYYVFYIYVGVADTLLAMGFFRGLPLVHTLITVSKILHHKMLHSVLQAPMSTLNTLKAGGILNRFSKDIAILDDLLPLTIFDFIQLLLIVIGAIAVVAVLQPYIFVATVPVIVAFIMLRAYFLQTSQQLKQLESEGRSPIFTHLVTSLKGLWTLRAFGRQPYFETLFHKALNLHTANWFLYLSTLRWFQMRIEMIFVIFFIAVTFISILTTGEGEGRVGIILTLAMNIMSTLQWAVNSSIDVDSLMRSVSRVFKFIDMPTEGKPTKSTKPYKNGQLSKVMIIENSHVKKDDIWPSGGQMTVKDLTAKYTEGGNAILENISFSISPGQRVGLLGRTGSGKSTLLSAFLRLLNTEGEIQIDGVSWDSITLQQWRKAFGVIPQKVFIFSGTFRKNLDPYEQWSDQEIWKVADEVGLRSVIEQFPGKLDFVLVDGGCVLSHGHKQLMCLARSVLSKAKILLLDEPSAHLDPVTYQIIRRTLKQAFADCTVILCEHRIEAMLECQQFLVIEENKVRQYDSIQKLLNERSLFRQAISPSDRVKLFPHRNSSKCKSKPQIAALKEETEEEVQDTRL

Turning to `CC1(C)Cc2c(sc(NC(=O)c3ccn[nH]3)c2C(N)=O)C(C)(C)O1` [GLPG1837], the sweat chloride concentration entry is “statistically significant dose-dependent decrease”.
